For 25 compounds, IC50 results are on record in patent US6514964B1, “Fused cycloheptane and fused azacycloheptane compounds and their methods of use” (Amgen Inc., priority 1999, dated 2003).

This assay deals with human umbilical cord endothelial cells (HUVEC). In words: HUVEC proliferation assay and/or HUVEC adhesion assay. In kind it is cell-based. The conditions noted are these: bound stated for the listed compounds. As for the experimental part:
HUVEC Proliferation Assay
1. Coat 3 NUNC polystyrene 96 well plate (VWR, 62409-120; lids 62409-118) with vitronectin (purified internally), fibronectin (Collaborative Biomed 40008A) or fibrinogen (Calbiochem 341578) 50 ng/well in 50 μl PBS, 1 hr @ RT.
a. rinse with 5 mls PBS (no Ca, Mg)
3. Rinse vitronectin plates 1× in 200 μl PBS −/− and add 3000 cells per well in 100 ul growth medium (EBM2 (Clonetics, CC-3156)+EGM2 bullet kit (CC-4176)).
4. Incubate 24 hours at 37° C. to allow attachment.
5. Remove growth medium and add 100 μl growth medium+drugs (25 μM and down by five fold steps in DMSO-0.25% final DMSO concentration).
6. Incubate for 3 days changing media (+drugs).
7. Remove non-adherent cells on Friday with Raindance 12 well plate washer.
8. Wash twice with 200 μl PBS (+Mg & Ca).
9. Tap out excess liquid.
10. Freeze @ −70° C. for 30 minutes.
11. Thaw plate and add 150 μl CyQuant fluorescent dye (Molecular Probes C-7026).
12. Read after 4 minutes @ 485λ (excitation), 530λ (emission).
1. Coat 2 NUNC polystyrene 96 well plates (VWR, 62409-120; lids 62409-118) with 50 μl vitronectin (purified internally) at 50 ng/well in PBS (−Mg & Ca), for 1 hour @ 37° C.
2. Rinse with PBS & block with 150 μl PBS/1% BSA (Sigma A8918), 1 hour at @ 37° C.
3. Prepare drug dilutions:
a. 400 fold concentrate in 100% DMSO
b. 0.25% DMSO [assay]final
c. 10 mM & down (25 μMfinal & down)
d. dilute 1 μl of 400 fold conc into 200 μl adhesion media
a. rinse with 5 ml PBS (no Ca, Mg)
6. Rinse blocking buffer from assay plate and add 50 μl of drug dilutions.
7. Resuspend cells in adhesion media, count and add 2e4 cells/well in 50 μl (4e5/ml).
8. Incubate 60 minutes @ 37° C.
9. Remove non-adherent cells with Raindance 12 well plate washer.
10. Wash twice with 200 μl PBS (+Mg & Ca)
11. Tap out excess liquid.
12. Freeze @ −70° C. for 30 minutes to overnite.
13. Thaw plate and add 150 μl CyQuant fluorescent dye (Molecular Probes C-7026).
14. Read after 2-5 minutes @ 485λ (excitation), 530λ (emission).
Adhesion medium: Media 199 (which contains […] and 0.8 mM MgSO4), 0.5% BSA, 10 mM HEPES, 1 mM MgCl2, and 1 mM MnCl2
For the compound `O=C(O)CC1CN(CC(=O)NCCCc2ccc3c(n2)NCCC3)CCc2ccccc21` (stereo not shown) [Example 28, 2-(3-{[N-(3-(1,2,3,4-tetrahydropyridino[2,3-b]pyridin-7-yl)propyl)carbamoyl]methyl}-1H,2H,4H,5H-benzo[d]azepinyl)acetic acid], the IC50 is at most 30 µM.

With `O=C(O)CC1CN(C(=O)NCCCCCNc2ccccn2)CCc2ccccc21` (stereo not shown) [Example 29, 2-(3-{N-(5-(2-pyridylamino)pent-1-yl)carbamoyl}-1H,2H,4H,5H-benzo[d]azepinyl)acetic acid], the IC50 was at most 30 µM. As to `O=C(O)CC1CN(C(=O)NCCCc2ccc3c(n2)NCCC3)CCc2ccccc21` (stereo not shown) [Example 30, 2-{3-(N-(3-(1,2,3,4-tetrahydropyridino[2,3-b]pyridin-7-yl)propyl)carbamoyl)-1H,2H,4H,5H-benzo[d]azepin-1-yl}acetic acid], the IC50 is at most 30 µM. `O=C(O)CC1CN(C(=O)CCCCCCNc2ccccn2)CCc2ccccc21` (stereo not shown) [Example 32, 2-{3-(7-(2-pyridylamino)heptanoyl)-1H,2H,4H,5H-benzo[d]azepin-1-yl}acetic acid] came in with an IC50 of at most 30 µM.

Turning to `CC(C)N(CCc1ccc2c(n1)NCCC2)C(=O)N1CCC(CC(=O)O)c2ccccc2C1` (stereo not shown) [Example 41, 2-{2-[N-(methylethyl)-N-(2-(1,2,3,4-tetrahydroyridino[2,3-b]pyridin-7-yl)ethyl)carbamoyl]-1H,3H,4H,5H-benzo[e]azepin-5-yl]acetic acid], the IC50 was at most 30 µM. Next, `N#C/N=C(\NCCCc1ccc2c(n1)NCCC2)N1CCC(CC(=O)O)c2ccccc2C1` (stereo not shown) [Example 42]: at most 30 µM; `O=C(O)CC1CCN(S(=O)(=O)NCCc2ccc3c(n2)NCCC3)Cc2ccccc21` (stereo not shown) [Example 45, 2-(2-(((2-(1,2,3,4-tetrahydropyridino(2,3-b)pyridin-7-yl)ethyl)amino)sulfonyl)-1H,3H,4H,5H-benzo[e]azain-5-yl)acetic acid]: at most 30 µM; `O=C(O)CCC1CCN(S(=O)(=O)NCCc2ccc3c(n2)NCCC3)Cc2ccccc21` (stereo not shown) [Example 47]: at most 30 µM. The compound `O=C(O)C[C@H]1CCN(C(=O)NCCCc2ccc3c(n2)NCCC3)Cc2ccccc21` [Example 52, 2-((5R)-2-(N-(3-(1,2,3,4-tetrahydropyridino(2,3-b)pyridin-7-yl)prop-1-yl)carbamoyl)-1H,3H,4H,5H-benzo[e]azapin-5-yl)acetic acid] displayed an IC50 of at most 30 µM. Then `O=C(O)C[C@H]1CCN(C(=O)NCCc2ccc3c(n2)NCCC3)Cc2ccccc21` [Example 53, 2-((5R)-2-(N-(3-(1,2,3,4-tetrahydropyridino(2,3-b)pyridin-7-yl)ethyl)carbamoyl)-1H,3H,4H,5H-benzo[e]azapin-5-yl)acetic acid], with at most 30 µM; and `O=C(O)C[C@@H]1CCN(C(=O)NCCc2ccc3c(n2)NCCC3)Cc2ccccc21` [Example 54, 2-((5S)-2-(N-(3-(1,2,3,4-tetrahydropyridino(2.3-b)pyridin-7-yl)ethyl)carbamoyl)-1H,3H,4H,5H-benzo[e]azapin-5-yl)acetic acid], with at most 30 µM.

Compound `O=C(O)C[C@@H]1CCN(C(=O)CCCc2ccc3c(n2)NCCC3)Cc2ccccc21` [Example 55] returned an IC50 of at most 30 µM. `O=C(O)CC1CCN(C(=O)CCCc2ccc3c(n2)NCCC3)Cc2ccccc21` (stereo not shown) [Example 56, 2-[2-(4-(1,2,3,4-tetrahydropyridino[2,3-b]pyridin-7-yl)butanoyl)-1H,3H,4H,5H-benzo[e]azepin-5-yl]acetic acid] showed an IC50 of at most 30 µM.

In the case of `O=C(O)CC1Cn2cc(C(=O)NCCc3ccc4c(n3)NCCC4)nc2Cc2ccccc21` (stereo not shown) [Example 63, 2-{2-[N-(2-(1,2,3,4-tetrahydropyridino [2,3-b]pyridin-7-yl)ethyl)carbamoyl]-4H,5H,10H-benzo[d]imidazolo[1,2-a]azepin-5-yl}acetic acid], the IC50 was at most 30 µM.

Compound `CC(C)N(CCc1ccc2c(n1)NCCC2)C(=O)c1cn2c(n1)Cc1ccccc1C(CC(=O)O)C2` (stereo not shown) [Example 64, 2-{2-[N-(methylethyl)-N-(2-(1,2,3,4-tetrahydropyridino[2,3-b]pyridin-7-yl)ethyl)carbamoyl]-4H,5H,10H-benzo[d]imidazolo[1,2-a]azepin-5-yl}acetic acid] displayed an IC50 of at most 30 µM. Compound `CC(C)N(Cc1cnc2c(c1)CCCN2)C(=O)c1cn2c(n1)Cc1ccccc1C(CC(=O)O)C2` (stereo not shown) [Example 65, 2-{2-[N-(methylethyl)-N-(1,2,3,4tetrahydropyridino[2,3-b]pyridine-6-ylmethyl)carbamoyl]-4H,5H,10H-benzo[d]imidazolo[1,2-a]azepin-5-yl}acetic acid] came in with an IC50 of at most 30 µM. As to `O=C(O)CC1Cn2cc(C(=O)NCc3cnc4c(c3)CCCN4)nc2Cc2ccccc21` (stereo not shown) [Example 66, 2-{2-[N-(1,2,3,4-tetrahydropyridino [2,3-b]pyridin-6-ylmethyl)carbamoyl]-4H,5H,10H-benzo[d]imidazolo[1,2-a]azepin-5-yl}acetic acid], the IC50 was at most 30 µM. Compound `CN(CCCNc1ccccn1)C(=O)c1cn2c(n1)Cc1ccccc1C(CC(=O)O)C2` (stereo not shown) [Example 67, 2-(2-{N-methyl-N-[3-(2-pyridylamino)propyl]carbamoyl}-4H,5H,10H-benzo[d]imidazolo[1,2-a]azepin-5-yl)acetic acid] had an IC50 of at most 30 µM. Consider `COc1ccc2c(c1)CN(C(=O)NCCCc1ccc3c(n1)NCCC3)CCC2CC(=O)O` (stereo not shown) [Example 71, 2-(8-methoxy-2-(N-(3-(1,2,3,4-tetrahydropyridino[2,3,b]pyridin-7-yl)propyl)carbamoyl)-1H,3H,4H,5H-benzo[e]azaperhydroepin-5-yl) acetic acid], for which the IC50 is at most 30 µM. Compound `O=C(O)CC1CCN(C(=O)NCCCc2ccc3c(n2)NCCC3)Cc2cc(OCc3ccccc3)ccc21` (stereo not shown) [Example 72] had an IC50 of at most 30 µM.

`O=C(O)CC1CCN(C(=O)NCCCc2ccc3c(n2)NCCC3)Cc2cc(-c3ccccc3)ccc21` (stereo not shown) [Example 73, 2-(8-phenyl-2-(N-(3-(1,2,3,4-tetrahydropyridino[2,3,b]pyridin-7-yl)propyl)carbamoyl)-1H,3H,4H,5H-benzo[e]azaperhydroepin-5-yl) acetic acid]: the IC50 is at most 30 µM.

The compound `O=C(O)CC1CCN(C(=O)NCCCCNC2=NCCN2)Cc2ccccc21` (stereo not shown) [Example 75, 2-(2-(N-(4-(4,5-dihydroimidazo-2-yl)aminobut-1-yl)carbamoyl)-1H,3H,4H-5H-benzo[e]azapin-5-yl)acetic acid] gave a half-maximal inhibitory concentration (IC50) of at most 30 µM. Then `O=C(O)CC1CCN(C(=O)NCCCc2ccc3c(n2)NCCC3)Cc2cc(Cl)ccc21` (stereo not shown) [Example 78, 2-{8-Chloro-2-[N-(3-(1,2,3,4-tetrahydropyridino[2,3-b]pyridin-7-yl)propyl)carbamoyl]-1H,3H,4H,5H-benzo[e]azepin-5-yl}acetic acid], with at most 30 µM; and `O=C(O)CC1CCN(C(=O)NCCCc2ccc3c(n2)NCCC3)Cc2cc(Br)ccc21` (stereo not shown) [Example 79, 2-{8-Bromo-2-[N-(3-(1,2,3,4-tetrahydropyridino[2,3-b]pyridin-7-yl)propyl)carbamoyl]-1H,3H,4H,5H-benzo[e]azepin-5-yl}acetic acid], with at most 30 µM; and `O=C(O)CC1CCN(C(=O)NCCCc2ccc3c(n2)NCCC3)Cc2cc(Br)c(Br)cc21` (stereo not shown) [Example 80, 2-{7,8-Dibromo-2-[N-(3-(1,2,3,4-tetrahydropyridino[2,3-b]pyridin-7-yl)propyl)carbamoyl]-1H,3H,4H,5 H-benzo[e]azepin-5-yl}acetic acid], with at most 30 µM.

As usually defined, the IC50 is the point on the concentration scale where inhibition reaches its midpoint.
